Test results reported in patent US9403829B2, “Pharmaceutical compositions of 7-(6-(2-hydroxypropan-2-yl)pyridin-3-yl)-1-((trans)-4-methoxycyclohexyl)-3,4-dihydropyrazino [2,3-b]pyrazin-2(1H)-one, a solid form thereof and methods of their use” (Signal Pharmaceuticals, LLC, priority 2011, dated 2016).
Like-named read-outs stand apart in the source and are kept apart here.

Assay: Phase 1 crossover pharmacokinetic study of tablet and capsule formulations, single oral dose
Type: in vivo, human
Settings: male, human, plasma, oral; for AUC(0-t): read-out: AUC0-24
Description: Certain formulations provided herein were evaluated in a Phase 1, open-label, randomized, crossover study.
On Day 1 of Period 1, following an overnight fast of at least 8 hours, subjects were randomized to one of the following 3 sequences to receive Treatment A, B or C (Table 30).
In Treatment A, one 20-mg reference Compound A API-in-capsule was administered orally after at least 8 hour fast with 240 mL of non-carbonated, room temperature water. In Treatment B, one 20-mg tablet of Compound A (Tablet Formulation XIII) was administered under fasted conditions. In Treatment C, four 5-mg tablets of Compound A (Tablet Formulation XIV) were administered under fasted conditions. The 20-mg tablet and four 5-mg tablets were administered orally after at least 8 hour fast with 240 mL of non-carbonated, room temperature water.
For each period, serial blood samples were collected before dosing (zero hour) and at 0.5, 1, 1.5, 2, 2.5, 3, 4, 6, 8, 12, 24, 48, 72, and 96 hours after dosing. Plasma concentrations of Compound A were determined for determining PK parameters, such as […], AUC0-∞, Cmax, Tmax, t1/2, CL/F, and Vz/F for Compound A. Plasma PK parameters were calculated using non compartmental methods. Analyses of variance (ANOVA) were performed on the natural log-transformed AUC0-t, AUC0-∞, and Cmax for Compound A. The geometric mean ratios (test/reference) and their 90% confidence intervals were also calculated. For Tmax, non parametric analysis was used to produce median differences.

[1] = upon administration of about 20 mg of Compound A (protocol of Section 6.5.1)
[2] = Treatment A: one 20-mg Compound A API-in-capsule, fasted, n = 18, geometric mean

Cmax [1]: 503 ng/mL | Tmax [1]: 3 h | half-life [1]: 14.3 h | AUC(0-t) [1]: 7480 ng·h/mL | AUC(0-inf) (upon administration of about 20 mg of Compound A (protocol of Section 6.5.1), read-out: AUC∞): 11900 ng·h/mL | half-life [2]: 14.3 h | Tmax (Treatment A: one 20-mg Compound A API-in-capsule, fasted, healthy adult males, n = 18, median): 3 h | Cmax [2]: 503 ng/mL | AUC(0-t) [2]: 7480 ng·h/mL | AUC(0-inf) (Treatment A: one 20-mg Compound A API-in-capsule, fasted, n = 18, geometric mean, read-out: AUC0-∞): 11900 ng·h/mL
Structure (SMILES): CC(C)(O)c1ccc(-c2cnc3c(n2)N([C@H]2CC[C@H](O)CC2)C(=O)CN3)cn1 [O-Desmethyl metabolite, 1-((1r,4r)-4-hydroxycyclohexyl)-7-(6-(2-hydroxypropan-2-yl)pyridin-3-yl)-3,4-dihydropyrazino[2,3-b]pyrazin-2(1H)-one]
